In brackets after ≈: the same amount, converted by molar mass. Where two headings read alike, the source gives them in different places.
How the values were obtained:
SARS-COV-2 = conditions: in vitro, human precision-cut lung slices; cited from earlier work
A549 cells = experiment: MTT cell viability assay; conditions: 24 hours, 0.05 to 10 μM
Procedure: A549 cells were cultured in DMEM/F12 medium supplemented with 10% (v/v) FBS and 1% (v/v) antibiotic-antimycotic at 37° C. in a humidified incubator with 5% CO2. On the day prior to treatment addition, approximately 2×10^4 cells/well were seeded into 96-well plates and incubated overnight. […] Upon the treatment, the cells were incubated with 200 μL of MTT reagent (0.8 mg/mL) for 3 hours at 37° C. 100 μL of isopropyl alcohol was then added to each well to solubilize the formazan dye crystals and the absorbance at 570 nm was measured using a microplate spectrophotometer (Thermo Scientific™ Multiskan™ GO, Thermo-Fisher, Waltham, MA, USA). Cell viability (%) was calculated by dividing the absorbance of treated cells by the absorbance of cells from the control group with equivalent concentration of DMSO as the treatment group. Six replicates were made for each concentration and the whole MTT assay was repeated in triplicate.

[1] = cited from earlier work
[2] = Equilibrium solubility measurement in organic solvents; assay type: physicochemical; conditions: 25 °C, organic solvent or mixture, thermodynamic from solid
Procedure: 10 μL samples were injected onto the column.
Samples were filtered through 0.45 μm membrane filters, followed by dilution to appropriate concentrations for the HPLC assay.

[3] = deposited dose 0.35 mg/kg by inhalation vs 10 mg/kg intravenous, African green monkeys; cited from earlier work
[4] = intravenous doses, healthy subjects, cited from earlier work
[5] = pH determination during dissolution in simulated lung fluid; assay type: physicochemical; conditions: equimolar amount (0.017 mol) in 20 mL SLF, initial pH 7.4, 37° C.
Procedure: The solution containing the samples was stirred at 75 rpm with a magnetic bar at 37° C., followed by in situ pH measurement at designated time points, i.e., 2 s, 5 s, 10 s, 15 s, 30 s, 45 s, 1 min, 1.5 min, 2 min, 3 min, 5 min, and 10 min, using a pH meter (Lab 850, Schott Instruments, United Kingdom).

[6] = In-vitro drug release study in pH 7.4 simulated lung fluid; assay type: physicochemical; conditions: 20 mL pH 7.4 SLF3, 37° C., 75 rpm, LAG cocrystal <63 μm, n=3

CC(=O)Oc1ccccc1C(=O)O [ASA, acetylsalicylic acid]
SARS-COV-2 viral replication (SARS-COV-2): inhibit SARS-COV-2 viral replication

CCC(CC)COC(=O)[C@H](C)N[P@](=O)(OC[C@H]1O[C@@](C#N)(c2ccc3c(N)ncnn23)[C@H](O)[C@@H]1O)Oc1ccccc1 [RDV, Remdesivir]
cell viability (A549 cells): around 100%
aqueous solubility ([1]; background statement): < 0.03 mg/mL
solubility in water ([1]; water at 25° C.): 0.028 mg/mL (≈ 0.0465 mM)
solubility at 72 h ([2]; Acetone): 66.4 ± 5.34 mg/mL (≈ 110 mM)
solubility at 72 h ([2]; Acetonitrile): 5.68 ± 0.6 mg/mL (≈ 9.43 mM)
solubility at 72 h ([2]; Chloroform): 3.86 ± 0.3 mg/mL (≈ 6.41 mM)
solubility at 72 h ([2]; Ethanol): 34.2 ± 2.29 mg/mL (≈ 56.7 mM)
solubility at 72 h ([2]; Methanol): 191 ± 13.3 mg/mL (≈ 317 mM)
lung RDV triphosphate levels, inhaled vs intravenous [3]: similar
highest plasma concentration of RDV observed [4]: 4420 ng/mL
highest plasma concentration of RDV observed ([4]; converted value): ~7.8 µM

O=C(O)c1ccccc1O [SA, Salicylic acid]
SARS-COV-2 viral replication (SARS-COV-2): inhibit SARS-COV-2 viral replication
medium pH at end point of dissolution (10 min) [5]: 7.35±0.03
medium pH in 2 seconds (transient drop) [5]: 6.89±0.02

CCC(CC)COC(=O)C(C)NP(=O)(OCC1OC(C#N)(c2ccc3c(N)ncnn23)C(O)C1O)Oc1ccccc1.O=C(O)c1ccccc1O (stereo not drawn) [RDV−SA, cocrystal of remdesivir and salicylic acid]
cell viability (A549 cells): around 100%
RDV dissolved at 120 min [6]: 71.22%
medium pH at end point of dissolution (10 min) [5]: 7.41±0.01
